Test results taken from patent publication US20210052524A1, “N-ACETYLCYSTEINE AND UREA-BASED FORMULATION FOR THE TREATMENT OF DERMATOLOGICAL DISORDERS” (DERMALENA DI CALDERAN ANDREA, priority 2017, published 2021).

Tests used:
[1] = test system: complex regional pain syndrome type I; conditions: 50% DMSO applied topically, N-acetylcysteine taken orally; cited from earlier work
[2] = Stability of the active ingredients in the formulation buffered to pH 5.5-6.5; format: physicochemical; conditions: pH 5.5-6.5 (lactic acid neutralized with sodium hydroxide) compared to more acidic or more basic conditions
Text: Preferably, the present formulation for topical use is in the form of a cream or a lotion, and preferably has a pH between 5.5 and 6.5, advantageously about 6.

[3] = test system: abdominal incisional wound subjected to radiation; conditions: oral and intra-peritoneal administration, model subjected to radiation; cited from earlier work

Row | SMILES | efficacy in the treatment of complex regional pain syndrome type I [1] | stability [2] | effect on histological, biochemical and mechanical parameters of incisional wound healing [3]
1 | C[S+](C)[O-] [50% DMSO, DMSO] | equally efficient |  | 
2 | CC(=O)N[C@@H](CS)C(=O)O [N-acetylcysteine] | equally efficient | improved | effectiveness
3 | NC(N)=O [urea] |  | improved | 
